Test results: patent US20140113306A1, “DIAGNOSTIC AND SCREENING METHODS FOR INFLAMMATION” (Rutgers, The State University of New Jersey, priority 2012, published 2014)

Tests used:
[1] = system: non-diabetic donor leukocytes; assay: Plasma exchange: diabetic patient plasma added to non-diabetic donor cellular fraction; format: cell-based, human; settings: cellular fraction treated 1 hour before exchange; leukocytes isolated 4 hours post-exchange
Description: (A) Blood samples from a non-diabetic (N) and a type 2 diabetic patient were separated into plasma and cellular fractions (cellular F.) and mutually exchanged. Thus, plasma derived from the non-diabetic donor was added to the diabetic patient cellular fraction, and vice versa. Leukocytes were isolated at indicated time post-exchange, lysed and analyzed by immunoblotting. (B) Blood samples from a non-diabetic donor were treated with insulin (0.1 unit/ml) for the indicated time (lanes 1-7) or with endotoxin for 2 hours (lane 8) (C) Blood samples from a non-diabetic donor were untreated (UN) or treated for 1 hour with polymyxin (50 μg/ml) or CL-095 (30 μM). Endotoxin (Endo; 10 ng/ml) was next added to specified samples (lanes 2-4). Leukocytes were isolated 2 hours tater. […] Samples were analyzed as in (A).
For the plasma mixing experiments, the blood samples were sedimented at unit gravity for 1.5 hours. […] The leukocytes were subsequently isolated, lysed, and analyzed by immunoblotting.
Next, non-diabetic donor leukocytes and leukocytes from two type 2 diabetic patients were either untreated, or treated with either polymyxin or CLI-095 prior to the plasma/leukocytes exchange. As shown above, pS6K1, pIRS-1, and HIF-1α expression were all detected in non-diabetic donor leukocytes following exposure to diabetic patients plasma. […]

TLR4 = assay: Endotoxin/TLR4 signaling block in non-diabetic donor blood challenged with endotoxin in vitro; format: cell-based, human; settings: 1 hour pretreatment, polymyxin 50 μg/ml or CLI-095; endotoxin 10 ng/ml 2 hours
Description: (§1) (A) Blood samples from a non-diabetic (N) and a type 2 diabetic patient were separated into plasma and cellular fractions (cellular F.) and mutually exchanged. Thus, plasma derived from the non-diabetic donor was added to the diabetic patient cellular fraction, and vice versa. Leukocytes were isolated at indicated time post-exchange, lysed and analyzed by immunoblotting. (B) Blood samples from a non-diabetic donor were treated with insulin (0.1 unit/ml) for the indicated time (lanes 1-7) or with endotoxin for 2 hours (lane 8) (C) Blood samples from a non-diabetic donor were untreated (UN) or treated for 1 hour with polymyxin (50 μg/ml) or CL-095 (30 μM). Endotoxin (Endo; 10 ng/ml) was next added to specified samples (lanes 2-4). Leukocytes were isolated 2 hours tater. (D and E) Blood samples obtained from a non-diabetic donor and two type 2 diabetic patients (identified as diabetic 1 and diabetic 2) were all separated into plasma and cellular fraction. The cellular fractions were either untreated (lane 4) or treated with polymyxin (lanes 5 and 8) or CLI-095 (lanes 6 and 9) for 1 hour. The samples shown in lanes 1-3 were not subjected to plasma exchange. (D) Plasma derived from diabetic 1 (lanes 4-6) or diabetic 2 (lanes 7-9) was added to the non-diabetic donor cellular fractions and (E) vice versa. The leukocytes were isolated at 4 hours post-exchange. Samples were analyzed as in (A).
(§2) Endotoxin (lipopolysaccharide from Escherichia coli 0111B4, Sigma, 10 ng/ml). Insulin (Humalog Mix 50/50; Lilly) was used at the indicated concentrations (0.05-1 unit/ml), Polymyxin (Invivogen, 50 μg/ml), CLI-095 (Invivogen; 3 μM), LY294002 (Cayman Chemical; 10 μM), Rapamycin (Tocris Bioscience; 100 nM), YC-1 (Sigma; 30 μM), Acriflavine (ACF; Sigma; 5 μM)
(§3) Human Subjects were enrolled in the study following the Institutional Review Board of Rutgers Robert Wood Johnson Medical School approval. Written informed consent was obtained from all participates prior to inclusion in the study. Blood was drawn into EDTA-containing tubes. To isolate leukocytes, lysis buffer (bicarbonate-buffered ammonium chloride solution, 0.826% NH4Cl, 0.1% KHCO3, 0.0037% Na4EDTA in H2O) was added at a ratio of 20:1 (lysis buffer/blood). Once the erythrocytes lysed, the samples were centrifuged for […] at 400×g. The leukocyte pellet was washed once with phosphate-buffered saline. The pellet was suspended in RIPA buffer (1% Triton X-100, 1% deoxycholic acid, 10 mM Tris-HCl, pH 7.2, 158 mM NaCl, 0.1% SDS, and 1 mM PMSF and complete protease inhibitor mixture (Roche Applied Science)). Lysates containing equal protein amounts were analyzed by immunoblotting. Where indicated, endotoxin, insulin, and/or inhibitors were added to the whole blood samples prior to leukocyte isolation.
To determine whether endotoxin is the component in diabetic patient plasma that regulates leukocyte activation, endotoxin/TLR4 signaling was blocked using two pharmacologic inhibitors, polymyxin and. CLI-095. Polymyxin is a natural polypeptide antibiotic that binds the lipid A moiety of endotoxin, and consequently interferes with endotoxin binding to TLR4. CLI-095, also known as TAK-242, is a specific TLR4 signaling inhibitor. As leukocytes express multiple Toll-like receptors (TLR) including TLR4, which binds endotoxin, TLR4 functions in the regulation of Akt/S6K1/mTOR axis is of interest.

liver = settings: pretreatment, endotoxin challenge; cited from earlier work
human leukocytes = assay: Ex vivo whole blood pretreated with inhibitors, then endotoxin; leukocyte Western blotting and ATP analyses; format: cell-based; settings: for endotoxin-induced AMPKα degradation (change in AMPKα expression) / endotoxin-induced HIF-1α expression / endotoxin-induced autophagy (LC3-I/LC3-II) / endotoxin-induced decline in ATP levels: whole blood treated 2 hours with inhibitor prior to endotoxin 10 ng/ml; for autophagy in endotoxin-treated leukocytes: FIG. 7B: LY 10 μM 30 min, RAPA 100 nM 2 hours, YC-1 30 μM 30 min, ACF 5 μM 2 hours, then endotoxin 10 ng/ml 2 hours
Description: (A) Blood samples were treated with endotoxin (LPS; […]) for the indicated time. (B-D) Blood samples were untreated (control), treated for 2 hours with DMSO (vehicle), or the specified inhibitors prior to the addition of endotoxin (10 ng/ml). The inhibitors tested included: LY294002 (LY), Rapamycin (RAPA), YC-1, acriflavine (ACF), metformin (Met) and SRT1720 (SRT). Leukocytes were isolated at the indicated time post-endotoxin treatment and lysed. Lysates were subjected to Western blotting analyses, and where shown, ATP analyses. Details are provided in the supplement. (E) Proposed model for endotoxin-induced metabolic derangement in human leukocytes.
(§4) FIG. 7. provides the Toll-like receptor 4 signaling pathway in human leukocytes and the antagonistic effect of insulin. (A) Blood samples were treated with endotoxin (10 ng/ml) for the indicated time. (B) Blood samples were untreated (UN), or treated with DMSO (vehicle; 0.05%; 2 hours), LY294002 (LY; 10 μM; 30 min), rapamycin (RAPA; 100 nM, 2 ‘hours), YC-1 (30 μM; 30 min), or acriflavine (ACF; 5 μM; 2 hours). The samples shown in lanes 3-8 were subsequently treated with endotoxin (10 ng/ml) for 2 hours. (C) Blood samples were untreated (UN; lane 1), treated with endotoxin (10 ng/ml; lane 2) for 2 hours, or with insulin (1 unit/ml) for 2 hours (lane 3) or 1 hour (lane 4). The samples shown in lanes 5-9 were treated with endotoxin (10 ng/ml) plus insulin at the indicated concentration (1-0.05 unit/ml) for 2 hours, (D) Blood samples were treated with insulin (0.1 unit/ml) plus endotoxin (10ng/ml) for the indicated time, or with endotoxin alone (Endo, 10 ng/ml) for 2 hours. Leukocytes were isolated, lysed, and analyzed as described in FIG. 5. (E) Model describing the pattern of signaling indicators detected in leukocytes treated with endotoxin as compared to insulin.
To examine the signaling events linking endotoxin induced responses ex vivo with the altered metabolic/bioenergetic profile, the inventors examined the effect of pharmacological inhibitors implicated in the regulation of HIF-1α expression in other model systems. […] Furthermore, they indicate that distinct PI-3K effectors regulate HIF-1α stabilization and AMPKα degradation.
To examine the effect of metformin on human leukocytes bioenergetics, whole blood samples were pretreated with metformin ex vivo prior to the addition of endotoxin.
as §2, §3

[2] = diabetics treated with metformin; cited from earlier work
[3] = system: endotoxin-treated leukocytes; assay: Insulin plus endotoxin in the in vitro whole blood system; leukocyte immunoblotting; format: cell-based, human
Description: as §4, §2, §3
Following food intake, especially if high in fat, human leukocytes might be exposed to increases in both insulin and endotoxin. Therefore, the combined effects of insulin and endotoxin on leukocytes were examined using the in vitro whole blood system. […] Insulin at a dose as low as 0.1 unit/ml also delayed onset of pAkt and pS6K1 in endotoxin-treated leukocytes (FIG. 7D).

leukocytes = assay: Insulin treatment of whole blood from non-diabetic individuals; leukocyte immunoblotting; format: cell-based, human; settings: insulin alone 0.1 unit/ml
Description: as §1, §2, §3
To establish the nature of the circulating factor enriched, in plasma from diabetics, multiple candidates were considered. As leukocytes express insulin receptor and circulating insulin is high in many type 2 and treated type 1 diabetic patients, insulin was chosen as the primary candidate. However, the insulin-signaling pathway in leukocytes is poorly characterized.

[4] = insulin 0.1 unit/ml plus endotoxin 10 ng/ml
[5] = insulin higher than 0.1 unit/ml plus endotoxin 10 ng/ml, 2 hours

## CCOC(=O)C1=CCCC[C@H]1S(=O)(=O)Nc1ccc(F)cc1Cl [CLI-095]
[1]
  pS6K1, pIRS-1, and HIF-1α expression following exposure to diabetic patients plasma: inhibited
TLR4
  HIF-1α expression upon challenge with endotoxin: prevented
  pIRS-1 upon challenge with endotoxin: prevented
  pS6K1 upon challenge with endotoxin: prevented

## Oc1ccc(C=Cc2cc(O)cc(O)c2)cc1 [Resveratrol, resveratrol]
liver
  HIF-1α expression in the liver: prevents
  Sirt1 degradation in the liver: prevents
  autophagy in the liver: prevents

## O=C(Nc1ccccc1-c1cn2c(CN3CCNCC3)csc2n1)c1cnc2ccccc2n1 [SRT1720]
Human leukocytes
  endotoxin-induced AMPKα degradation (change in AMPKα expression): did not
  endotoxin-induced HIF-1α expression: block

## OCc1ccc(-c2nn(Cc3ccccc3)c3ccccc23)o1 [YC-1, 3-(5′-hydroxymethyl-2′-furyl)-1-benzylindazole]
Human leukocytes
  autophagy in endotoxin-treated leukocytes: prevented
  endotoxin-induced AMPKα degradation (change in AMPKα expression): did not prevent
  endotoxin-induced autophagy (LC3-I/LC3-II): inhibited
  endotoxin-induced decline in ATP levels: inhibited

## CN(C)C(=N)N=C(N)N [metformin]
[2]
  less cancer than diabetics treated with insulin: 25-40%
Human leukocytes; metformin alone, no endotoxin
  AMPKα phosphorylation: induced
Human leukocytes; metformin pretreatment combined with endotoxin
  AMPKα phosphorylation (Thr 172): induced
Human leukocytes
  endotoxin-induced AMPKα degradation (change in AMPKα expression): prevents
  endotoxin-induced HIF-1α expression: prevents
Human leukocytes; listed as Metformin
  endotoxin-induced AMPKα degradation (change in AMPKα expression): inhibited
  endotoxin-induced HIF-1α expression: inhibited

## acriflavine
Human leukocytes
  autophagy in endotoxin-treated leukocytes: prevented
  endotoxin-induced AMPKα degradation (change in AMPKα expression): did not prevent
  endotoxin-induced autophagy (LC3-I/LC3-II): inhibited
  endotoxin-induced decline in ATP levels: inhibited

## insulin: Insulin (Humalog Mix 50/50; Lilly)
[3]; endotoxin plus insulin at <0.1 unit/ml
  signaling pattern of leukocytes: the pattern observed in leukocytes treated with endotoxin alone
[3]; [4]
  onset of pAkt: delayed onset
  onset of pS6K1: delayed onset
[3]; [5]
  HIF-1α expression: suppressed
  TLR4 expression: suppressed
  autophagy: suppressed
  dephosphorylation of Raptor: suppressed
  pIRS-1: suppressed
leukocytes
  Raptor dephosphorylation: failed to induce
  increase in HIF-1α expression: failed to induce
  increase in autophagy: failed to induce
  pAkt: triggered increases
  pIRS-1: failed to induce
  pS6K1: triggered increases

## polymyxin
[1]
  pS6K1, pIRS-1, and HIF-1α expression following exposure to diabetic patients plasma: inhibited
TLR4
  HIF-1α expression upon challenge with endotoxin: prevented
  pIRS-1 upon challenge with endotoxin: prevented
  pS6K1 upon challenge with endotoxin: prevented
